Common to all, as to assay: microbe, parasite or virus in culture
Common to all, as to type: cell-based

Assay [1] deals with influenza A virus minigenome (PB2, PB1, PA, NP; luciferase reporter) in 293T cells, RNP_Alaska. The settings on record: HEK-293T, 48 h.
Assay [2] concerns influenza A virus minigenome (PB2, PB1, PA, NP; luciferase reporter) in 293T cells, RNP_CAL. As to conditions: HEK-293T, 48 h, read-out: RNP_CAL_EC50.
In assay [3] the test system is influenza A virus minigenome (PB2, PB1, PA, NP; luciferase reporter) in 293T cells, RNP_Hubei. As to conditions: HEK-293T, 48 h.

pEC50: −log10 of the molar value.

Consider `O=C(Oc1c2n(ncc1=O)[C@@H]([C@H](c1ccccc1)c1cccc(F)c1F)[C@H]1CCCN1C2=O)C1CCOCC1` [Example 75, (9aR,10S)-10-((R)-(2,3-difluorophenyl)(phenyl)methyl)-3,5-dioxo-3,5,8,9,9a,10-hexahydro-7H-pyrrolo[1′,2′:4,5]pyrazino[1,2-b]pyridazin-4-yl tetrahydro-2H-pyran-4-carboxylate], for which the pEC50 in assay [1], in assay [2] and in assay [3] was over 7.00 each time.
Take `CC(=O)OCOc1c2n(ncc1=O)[C@@H]([C@H](c1ccccc1)c1cccc(F)c1F)[C@H]1CCCN1C2=O` [Example 76, (((9aR,10S)-10-((R)-(2,3-difluorophenyl)(phenyl)methyl)-3,5-dioxo-3,5,8,9,9a,10-hexahydro-7H-pyrrolo[1′,2′:4,5]pyrazino[1,2-b]pyridazin-4-yl)oxy)methyl acetate]: the pEC50 in assay [1], in assay [2] and in assay [3] was over 7.00 throughout.
As to `CCC(=O)OCOc1c2n(ncc1=O)[C@@H]([C@H](c1ccccc1)c1cccc(F)c1F)[C@H]1CCCN1C2=O` [Example 77, (((9aR,10S)-10-((R)-(2,3-difluorophenyl)(phenyl)methyl)-3,5-dioxo-3,5,8,9,9a,10-hexahydro-7H-pyrrolo[1′,2′:4,5]pyrazino[1,2-b]pyridazin-4-yl)oxy)methyl propionate], the pEC50 in assay [1], in assay [2] and in assay [3] was over 7.00 each time.
Take `Cc1oc(=O)oc1COc1c2n(ncc1=O)[C@@H]([C@H](c1ccc(F)cc1)c1cccc(F)c1F)[C@H]1CCCN1C2=O` [Example 80, (9aR,10S)-10-((R)-(2,3-difluorophenyl)(4-fluorophenyl)methyl)-4-((5-methyl-2-oxo-1,3-dioxol-4-yl)methoxy)-8,9,9a,10-tetrahydro-7H-pyrrolo[1′,2′:4,5]pyrazino[1,2-b]pyridazine-3,5-dione]: the pEC50 in assay [1], in assay [2] and in assay [3] was over 7.00 each time.
As to `COC(=O)OCOc1c2n(ncc1=O)[C@@H]([C@H](c1ccc(F)cc1)c1cccc(F)c1F)[C@H]1CCCN1C2=O` [Example 82, (((9aR,10S)-10-((R)-(2,3-difluorophenyl)(4-fluorophenyl)methyl)-3,5-dioxo-3,5,8,9,9a,10-hexahydro-7H-pyrrolo[1′,2′:4,5]pyrazino[1,2-b]pyridazin-4-yl)oxy)methyl methyl carbonate], the pEC50 in assay [1], in assay [2] and in assay [3] was over 7.00 throughout.
As for `CC(=O)Oc1c2n(ncc1=O)[C@@H]([C@H](c1ccc(F)cc1)c1cccc(F)c1F)[C@H]1CCCN1C2=O` [Example 83, (9aR,10S)-10-((R)-(2,3-difluorophenyl)(4-fluorophenyl)methyl)-3,5-dioxo-3,5,8,9,9a,10-hexahydro-7H-pyrrolo[1′,2′:4,5]pyrazino[1,2-b]pyridazin-4-yl acetate], the pEC50 in assay [1], in assay [2] and in assay [3] was over 7.00 throughout.
With `CC(C)C(=O)Oc1c2n(ncc1=O)[C@@H]([C@H](c1ccc(F)cc1)c1cccc(F)c1F)[C@H]1CCCN1C2=O` [Example 84, (9aR,10S)-10-((R)-(2,3-difluorophenyl)(4-fluorophenyl)methyl)-3,5-dioxo-3,5,8,9,9a,10-hexahydro-7H-pyrrolo[1′,2′:4,5]pyrazino[1,2-b]pyridazin-4-yl isobutyrate], the pEC50 in assay [1], in assay [2] and in assay [3] was over 7.00 throughout.
Take `CN(C)C(=O)OCOc1c2n(ncc1=O)[C@@H]([C@H](c1ccc(F)cc1)c1cccc(F)c1F)[C@H]1CCCN1C2=O` [Example 85, (((9aR,10S)-10-((R)-(2,3-difluorophenyl)(4-fluorophenyl)methyl)-3,5-dioxo-3,5,8,9,9a,10-hexahydro-7H-pyrrolo[1′,2′:4,5]pyrazino[1,2-b]pyridazin-4-yl)oxy)methyl dimethylcarbamate]: the pEC50 in assay [1] was at most 6.00; in assay [2], 6.00 to 7.00; in assay [3], 6.00 to 7.00.

(Values after US12071441B2, “10-(di(phenyl)methyl)-4-hydroxy-8,9,9A,10-tetrahydro-7H-pyrrolo[1′,2′:4,5]pyrazino[1,2-b]pyridazine-3,5-dione derivatives and related compounds as inhibitors of the orthomyxovirus replication for treating influenza” (Novartis AG, priority 2018, dated 2024).)
